Results taken from ChEMBL document CHEMBL5346943, “Discovery and Structural Optimization of Novel Quinolone Derivatives as Potent Irreversible Pan-Fibroblast Growth Factor Receptor Inhibitors for Treating Solid Tumors” (J Med Chem, 2023).
Blank lines part the entries; values can stand above or below the compound they belong to.

What was measured:
Hep 3B2 = test: Antiproliferative activity against human Hep3B cells incubated for 72 hrs by Cell counting kit 8 method; type: functional, cell-based
Huh-7 = test: Antiproliferative activity against human Huh-7 cells incubated for 72 hrs by Cell counting kit 8 method; type: functional, cell-based; details: Huh-7, 72 h
[1] = target: T1, Fibroblast growth factor receptor 4 (Homo sapiens, UniProt P22455); test: Inhibition of FGFR4 (unknown origin) incubated for 10 mins followed by substrate addition measured after 60 mins by ADP-Glo luminescence assay
Target sequence in this assay (P22455 whole entry): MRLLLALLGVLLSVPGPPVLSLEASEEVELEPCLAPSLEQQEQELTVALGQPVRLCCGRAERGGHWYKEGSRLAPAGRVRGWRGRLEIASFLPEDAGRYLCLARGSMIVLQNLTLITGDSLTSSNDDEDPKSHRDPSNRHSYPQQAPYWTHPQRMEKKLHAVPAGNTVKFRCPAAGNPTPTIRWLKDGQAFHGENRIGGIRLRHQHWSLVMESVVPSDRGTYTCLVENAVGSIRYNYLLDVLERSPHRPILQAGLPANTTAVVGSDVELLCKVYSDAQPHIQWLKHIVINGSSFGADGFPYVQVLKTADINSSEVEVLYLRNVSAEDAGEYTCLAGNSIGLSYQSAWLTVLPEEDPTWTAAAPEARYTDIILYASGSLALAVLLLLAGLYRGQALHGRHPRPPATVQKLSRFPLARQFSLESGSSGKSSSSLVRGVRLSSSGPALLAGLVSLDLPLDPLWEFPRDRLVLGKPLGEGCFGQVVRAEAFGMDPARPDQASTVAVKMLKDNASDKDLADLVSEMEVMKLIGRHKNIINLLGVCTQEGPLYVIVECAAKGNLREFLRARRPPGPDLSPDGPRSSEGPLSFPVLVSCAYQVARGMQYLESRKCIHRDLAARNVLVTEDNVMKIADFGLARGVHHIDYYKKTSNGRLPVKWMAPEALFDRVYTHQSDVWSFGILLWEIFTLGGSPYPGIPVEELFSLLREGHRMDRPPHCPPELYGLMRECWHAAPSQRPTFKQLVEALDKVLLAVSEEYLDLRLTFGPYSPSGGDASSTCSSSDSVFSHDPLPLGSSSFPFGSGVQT

[2] = Ionization constant, pKa of the compound in PBS buffer at pH 1.42 to 12.33 by electrochemical method; type: physicochemical
[3] = Permeability of the compound at 10 uM preincubated in acceptor compartment for 16 hrs followed by 16 hrs incubation in donor compartment by PAMPA based LC-MS/MS analysis; type: ADME; details: time 32 hrs, read-out: permeability
[4] = target: Fibroblast growth factor receptor 1 (Homo sapiens, UniProt P11362); test: Inhibition of FGFR1 (unknown origin) incubated for 10 mins followed by substrate addition measured after 60 mins by ADP-Glo luminescence assay
[5] = Microsomal stability in human liver microsomes assessed as half life preincubated for 10 mins followed by NADPH addition measured upto 60 mins by LC-MS/MS analysis; type: ADME, Microsome; details: time < 70 min
[6] = target: Fibroblast growth factor receptor 2 (Homo sapiens, UniProt P21802); test: Inhibition of FGFR2 (unknown origin) incubated for 10 mins followed by substrate addition measured after 60 mins by ADP-Glo luminescence assay
[7] = Microsomal stability in human liver microsomes assessed as intrinsic clearance preincubated for 10 mins followed by NADPH addition measured upto 60 mins by LC-MS/MS analysis; type: ADME, Microsome; details: time < 70 min, read-out: CLH
[8] = target: T1, Fibroblast growth factor receptor 4; test: Inhibition of FGFR4 (unknown origin) at 100 nM incubated for 10 mins followed by substrate addition measured after 60 mins by ADP-Glo luminescence assay relative to control; details: time 70.0 min
Target sequence in this assay (P22455 22-802 limits assumed): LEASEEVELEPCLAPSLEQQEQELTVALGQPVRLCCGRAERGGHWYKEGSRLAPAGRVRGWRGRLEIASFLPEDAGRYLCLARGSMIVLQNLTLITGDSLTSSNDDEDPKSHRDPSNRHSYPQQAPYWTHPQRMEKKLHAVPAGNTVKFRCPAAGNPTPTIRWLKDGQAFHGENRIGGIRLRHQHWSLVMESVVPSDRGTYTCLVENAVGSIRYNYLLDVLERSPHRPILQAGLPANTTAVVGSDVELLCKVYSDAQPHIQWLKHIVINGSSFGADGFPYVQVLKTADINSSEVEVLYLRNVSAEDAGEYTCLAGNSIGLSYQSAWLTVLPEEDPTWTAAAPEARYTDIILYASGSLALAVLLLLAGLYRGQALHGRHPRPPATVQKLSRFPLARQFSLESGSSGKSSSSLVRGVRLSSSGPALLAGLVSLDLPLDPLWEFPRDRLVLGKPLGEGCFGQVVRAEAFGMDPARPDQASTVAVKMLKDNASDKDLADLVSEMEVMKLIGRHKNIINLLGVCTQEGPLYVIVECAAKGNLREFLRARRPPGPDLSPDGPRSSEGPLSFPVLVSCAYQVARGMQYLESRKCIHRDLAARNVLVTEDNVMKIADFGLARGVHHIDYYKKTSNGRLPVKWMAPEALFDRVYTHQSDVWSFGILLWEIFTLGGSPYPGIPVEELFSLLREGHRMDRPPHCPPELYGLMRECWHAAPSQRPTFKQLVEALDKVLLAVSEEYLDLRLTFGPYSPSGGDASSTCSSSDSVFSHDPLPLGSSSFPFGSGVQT

[9] = AUC (0 to infinity) in Sprague-Dawley rat measured at 10 mg/kg, po for 0.083 to 24 hrs by LC-MS/MS analysis; type: ADME, organism-based; set-up: dose 10 mg/kg, time upper 24 hrs, time lower 0.083 hrs, route po; details: in vivo
[10] = AUC (0 to t) in Sprague-Dawley rat measured at 2 mg/kg, iv for 0.083 to 24 hrs by LC-MS/MS analysis; type: ADME, organism-based; set-up: dose 2 mg/kg, time upper 24 hrs, time lower 0.083 hrs, route iv; details: in vivo
[11] = Cmax in Sprague-Dawley rat measured at 10 mg/kg, po for 0.083 to 24 hrs by LC-MS/MS analysis; type: ADME, organism-based; set-up: time 0.083-24 hrs, dose 10 mg/kg, route po; details: in vivo
[12] = AUC (0 to t) in Sprague-Dawley rat measured at 10 mg/kg, po for 0.083 to 24 hrs by LC-MS/MS analysis; type: ADME, organism-based; set-up: dose 10 mg/kg, time upper 24 hrs, time lower 0.083 hrs, route po; details: in vivo
[13] = C0 in Sprague-Dawley rat measured at 2 mg/kg, iv for 0.083 to 24 hrs by LC-MS/MS analysis; type: ADME, organism-based; details: in vivo, time 0.083-24 hrs
[14] = Clearance in Sprague-Dawley rat measured at 2 mg/kg, iv for 0.083 to 24 hrs by LC-MS/MS analysis; type: ADME, organism-based; details: in vivo, time 0.083-24 hrs
[15] = Half life in Sprague-Dawley rat measured at 2 mg/kg, iv for 0.083 to 24 hrs by LC-MS/MS analysis; type: ADME, organism-based; details: in vivo, time 0.083-24 hrs
[16] = MRT (0 to infinity) in Sprague-Dawley rat measured at 10 mg/kg, po for 0.083 to 24 hrs by LC-MS/MS analysis; type: ADME, organism-based; details: in vivo, time 0.083-24 hrs
[17] = Tmax in Sprague-Dawley rat measured at 2 mg/kg, iv for 0.083 to 24 hrs by LC-MS/MS analysis; type: ADME, organism-based; details: in vivo, time 0.083-24 hrs
[18] = MRT (0 to t) in Sprague-Dawley rat measured at 10 mg/kg, po for 0.083 to 24 hrs by LC-MS/MS analysis; type: ADME, organism-based; details: in vivo, time 0.083-24 hrs
[19] = Oral bioavailability in Sprague-Dawley rat measured at 10 mg/kg for 0.083 to 24 hrs by LC-MS/MS analysis; type: ADME, organism-based; details: in vivo, time 0.083-24 hrs
[20] = MRT (0 to t) in Sprague-Dawley rat measured at 2 mg/kg, iv for 0.083 to 24 hrs by LC-MS/MS analysis; type: ADME, organism-based; details: in vivo, time 0.083-24 hrs
[21] = MRT (0 to infinity) in Sprague-Dawley rat measured at 2 mg/kg, iv for 0.083 to 24 hrs by LC-MS/MS analysis; type: ADME, organism-based; details: in vivo, time 0.083-24 hrs
[22] = Volume of distribution at steady state in Sprague-Dawley rat measured at 2 mg/kg, iv for 0.083 to 24 hrs by LC-MS/MS analysis; type: ADME, organism-based; details: in vivo, time 0.083-24 hrs, read-out: Vdss
[23] = Tmax in Sprague-Dawley rat measured at 10 mg/kg, po for 0.083 to 24 hrs by LC-MS/MS analysis; type: ADME, organism-based; details: in vivo, time 0.083-24 hrs
[24] = Solubility of the compound in PBS buffer of pH7.4 at 10 mM measured after 2 hrs by LC-MS/MS analysis; type: physicochemical; details: pH 7.4
[25] = AUC (0 to infinity) in Sprague-Dawley rat measured at 2 mg/kg, iv for 0.083 to 24 hrs by LC-MS/MS analysis; type: ADME, organism-based; set-up: time lower 0.083 hrs, dose 2 mg/kg, time upper 24 hrs, route iv; details: in vivo
[26] = target: Fibroblast growth factor receptor 3 (Homo sapiens, UniProt P22607); test: Inhibition of FGFR3 (unknown origin) incubated for 10 mins followed by substrate addition measured after 60 mins by ADP-Glo luminescence assay
[27] = Half life in Sprague-Dawley rat measured at 10 mg/kg, po for 0.083 to 24 hrs by LC-MS/MS analysis; type: ADME, organism-based; details: in vivo, time 0.083-24 hrs
[28] = Cmax in Sprague-Dawley rat measured at 2 mg/kg, iv for 0.083 to 24 hrs by LC-MS/MS analysis; type: ADME, organism-based; set-up: time upper 24 hrs, time lower 0.083 hrs, dose 2 mg/kg, route iv; details: in vivo

Chain of Fibroblast growth factor receptor 1 (P11362 whole entry): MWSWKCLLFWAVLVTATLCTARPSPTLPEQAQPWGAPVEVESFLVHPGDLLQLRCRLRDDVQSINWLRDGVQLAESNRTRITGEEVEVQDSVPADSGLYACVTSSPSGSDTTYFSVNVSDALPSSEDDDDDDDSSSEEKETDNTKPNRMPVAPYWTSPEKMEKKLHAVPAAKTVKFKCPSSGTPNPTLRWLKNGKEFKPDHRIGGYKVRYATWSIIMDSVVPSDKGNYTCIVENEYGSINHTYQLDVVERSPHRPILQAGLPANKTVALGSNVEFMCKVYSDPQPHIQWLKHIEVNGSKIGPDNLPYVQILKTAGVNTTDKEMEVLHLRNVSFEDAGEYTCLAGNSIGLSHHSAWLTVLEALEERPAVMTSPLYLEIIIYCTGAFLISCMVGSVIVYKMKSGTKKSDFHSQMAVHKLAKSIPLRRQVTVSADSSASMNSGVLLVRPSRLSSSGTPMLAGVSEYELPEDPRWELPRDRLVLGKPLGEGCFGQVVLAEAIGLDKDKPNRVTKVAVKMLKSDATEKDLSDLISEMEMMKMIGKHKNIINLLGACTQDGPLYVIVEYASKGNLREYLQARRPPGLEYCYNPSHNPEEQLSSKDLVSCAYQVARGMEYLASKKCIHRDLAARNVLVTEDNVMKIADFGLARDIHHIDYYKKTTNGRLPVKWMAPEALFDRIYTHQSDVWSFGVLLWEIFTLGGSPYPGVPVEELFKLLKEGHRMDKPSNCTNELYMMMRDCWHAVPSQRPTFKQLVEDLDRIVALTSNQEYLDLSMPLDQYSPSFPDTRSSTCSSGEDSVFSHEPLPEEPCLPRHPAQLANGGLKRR
Chain of Fibroblast growth factor receptor 2 (P21802 whole entry): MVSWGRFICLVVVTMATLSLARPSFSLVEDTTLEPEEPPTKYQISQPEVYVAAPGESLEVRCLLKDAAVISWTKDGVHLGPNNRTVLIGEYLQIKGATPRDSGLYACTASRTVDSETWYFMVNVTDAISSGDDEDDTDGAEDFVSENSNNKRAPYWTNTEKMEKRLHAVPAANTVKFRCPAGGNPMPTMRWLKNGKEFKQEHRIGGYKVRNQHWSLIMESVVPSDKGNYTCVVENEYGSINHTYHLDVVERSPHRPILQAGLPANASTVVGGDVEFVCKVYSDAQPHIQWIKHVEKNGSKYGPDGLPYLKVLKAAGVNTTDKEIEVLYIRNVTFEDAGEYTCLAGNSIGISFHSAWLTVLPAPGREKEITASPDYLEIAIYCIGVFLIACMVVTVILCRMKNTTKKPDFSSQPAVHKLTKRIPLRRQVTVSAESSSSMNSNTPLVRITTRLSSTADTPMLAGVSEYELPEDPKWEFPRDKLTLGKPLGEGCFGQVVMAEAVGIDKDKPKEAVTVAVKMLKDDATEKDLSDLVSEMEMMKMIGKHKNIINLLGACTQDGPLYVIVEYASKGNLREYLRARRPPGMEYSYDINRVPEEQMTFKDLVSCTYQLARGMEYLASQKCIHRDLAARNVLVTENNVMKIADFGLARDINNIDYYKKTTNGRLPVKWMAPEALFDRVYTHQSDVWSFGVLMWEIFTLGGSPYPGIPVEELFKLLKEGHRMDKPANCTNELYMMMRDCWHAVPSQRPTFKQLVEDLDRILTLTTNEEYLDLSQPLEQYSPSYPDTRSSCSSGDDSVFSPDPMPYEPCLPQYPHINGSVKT
Chain of Fibroblast growth factor receptor 3 (P22607 whole entry): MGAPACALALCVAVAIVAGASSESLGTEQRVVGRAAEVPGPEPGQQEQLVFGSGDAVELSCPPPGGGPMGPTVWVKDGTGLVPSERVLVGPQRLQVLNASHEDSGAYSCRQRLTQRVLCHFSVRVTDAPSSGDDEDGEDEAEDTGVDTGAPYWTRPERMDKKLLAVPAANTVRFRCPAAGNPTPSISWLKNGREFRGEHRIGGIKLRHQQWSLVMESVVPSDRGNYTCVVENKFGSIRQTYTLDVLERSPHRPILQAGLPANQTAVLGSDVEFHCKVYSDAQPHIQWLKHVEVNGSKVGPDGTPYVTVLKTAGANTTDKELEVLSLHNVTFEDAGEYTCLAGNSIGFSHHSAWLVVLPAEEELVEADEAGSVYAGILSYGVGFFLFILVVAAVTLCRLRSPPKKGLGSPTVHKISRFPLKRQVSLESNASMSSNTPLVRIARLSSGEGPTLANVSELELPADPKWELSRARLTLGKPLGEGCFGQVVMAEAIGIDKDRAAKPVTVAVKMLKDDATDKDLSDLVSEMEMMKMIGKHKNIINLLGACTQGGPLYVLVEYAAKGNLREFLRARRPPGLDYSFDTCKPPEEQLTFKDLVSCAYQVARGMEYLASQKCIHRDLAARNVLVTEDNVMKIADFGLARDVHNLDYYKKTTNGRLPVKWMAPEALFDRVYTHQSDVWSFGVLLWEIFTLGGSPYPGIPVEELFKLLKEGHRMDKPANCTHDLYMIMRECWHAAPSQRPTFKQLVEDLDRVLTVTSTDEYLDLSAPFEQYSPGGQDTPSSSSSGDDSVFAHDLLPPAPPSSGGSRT

Compound: COc1cc2nccc(Oc3ccc(NC(=O)NC4CC4)c(Cl)c3)c2cc1C(N)=O [LENVATINIB]
pKa [2]: 5.27
IC50 (Hep 3B2): 696 nM
Papp at 16 h, 10 µM [3]: 9.27 ×10⁻⁶ cm/s
IC50 (Huh-7): 851 nM
IC50 [4]: 66 nM
half-life [5]: 22.4 min
IC50 [6]: 11 nM
microsomal CLint [7]: 74.1 µL/min/mg

Compound: C=CC(=O)N1CCC(c2cc3c(Oc4ccc(NC(=O)NC5CC5)c(Cl)c4)ccnc3cc2OC(C)C)CC1
IC50 (Hep 3B2): 63.6 nM
IC50 (Huh-7): 37.8 nM
IC50 [1]: 17 nM

Compound: C=CC(=O)N1CCC(c2cc3c(Oc4ccc(NC(=O)NC5CC5)c(OCC)c4)ccnc3cc2OC)CC1
IC50 (Hep 3B2): 509 nM
IC50 (Huh-7): 356 nM
inhibition [8]: 10.7%

Compound: C=CC(=O)N1CCC(c2cc3nccc(Oc4ccc(NC(=O)NC5CC5)c(Cl)c4)c3cc2OC)CC1
IC50 (Hep 3B2): > 10000 nM
IC50 (Huh-7): > 10000 nM
inhibition [8]: 25.9%

Compound: C=CC(=O)N1CCC(c2cc3c(Oc4ccc(NC(=O)NC5CC5)c(Cl)c4)ccnc3cc2OCC)CC1
pKa [2]: 5.28
AUC(0-inf) [9]: 1120 ng·h/mL
AUC(0-t) [10]: 505 ng·h/mL
Cmax [11]: 1680 ng/mL
AUC(0-t) [12]: 1100 ng·h/mL
C0 [13]: 3090 ng/mL
clearance [14]: 66 mL/min/kg
half-life [15]: 14.4 min
IC50 (Hep 3B2): 17.4 nM
MRT [16]: 85.2 min
Tmax [17]: 4.8 min
Papp at 16 h, 10 µM [3]: 1.11 ×10⁻⁶ cm/s
MRT last [18]: 79.8 min
IC50 (Huh-7): 9.4 nM
IC50 [4]: 4.5 nM
bioavailability [19]: 43.7%
MRT last [20]: 9.6 min
MRT [21]: 10.2 min
Vd [22]: 0.659 L/kg
Tmax [23]: 15 min
solubility at 2 h, 10000 µM [24]: < 0.073 µM
IC50 [6]: 5.2 nM
IC50 [1]: 230 nM
AUC(0-inf) [25]: 506 ng·h/mL
IC50 [26]: 5.5 nM
half-life [27]: 78 min
Cmax [28]: 1700 ng/mL

Compound: C=CC(=O)N1CCC(c2cc3c(Oc4ccc(NC(=O)C5(C(=O)Nc6ccc(F)cc6)CC5)cc4)ccnc3cc2OC)CC1
IC50 (Hep 3B2): 3930 nM
IC50 (Huh-7): > 10000 nM
inhibition [8]: -2.1%

Compound: C=CC(=O)N1CC=C(c2cc3c(Oc4ccc(NC(=O)NC5CC5)c(Cl)c4)ccnc3cc2OC)CC1
IC50 (Hep 3B2): 66.2 nM
IC50 (Huh-7): 54.3 nM
IC50 [1]: 2.88 nM

Compound: C=CC(=O)N1CCC(c2cc3c(Nc4ccc(F)c(Cl)c4)ccnc3cc2OC)CC1
IC50 (Hep 3B2): > 10000 nM
IC50 (Huh-7): > 10000 nM
inhibition [8]: 15.3%

Compound: C=CC(=O)N1CCC(c2cc3c(Oc4ccc(NC(=O)c5c(C)n(C)n(-c6ccccc6)c5=O)cc4F)ccnc3cc2OC)CC1
IC50 (Hep 3B2): 450 nM
IC50 (Huh-7): 1710 nM

The next lines start with results.

IC50 (Huh-7): > 10000 nM
IC50 [1]: 4.65 nM
Compound: C=CS(=O)(=O)N1CC=C(c2cc3c(Oc4ccc(NC(=O)NC5CC5)c(Cl)c4)ccnc3cc2OC)CC1
IC50 (Hep 3B2): 5080 nM

IC50 (Huh-7): > 10000 nM
inhibition [8]: 21.6%
Compound: C=C(F)C(=O)N1CCC(c2cc3c(Oc4ccc(NC(=O)NC5CC5)c(Cl)c4)ccnc3cc2OC)CC1
IC50 (Hep 3B2): > 10000 nM

IC50 (Huh-7): 8830 nM
inhibition [8]: 15%
Compound: C=CC(=O)N1CCC(c2cc3c(Oc4ccc(NC(=O)NC5CC5)c(Cl)c4)c(C#N)cnc3cc2OC)CC1
IC50 (Hep 3B2): > 10000 nM

IC50 (Huh-7): 26.1 nM
IC50 [1]: 4.6 nM
Compound: COc1cc2nccc(Oc3ccc(NC(=O)NC4CC4)c(Cl)c3)c2cc1C1CCN(C(=O)/C=C/CN(C)C)CC1
IC50 (Hep 3B2): 30 nM

IC50 (Huh-7): 216 nM
inhibition [8]: 20.6%
Compound: C=CC(=O)N1CCC(c2cc3c(Oc4cc5cc(C)[nH]c5cc4F)ccnc3cc2OC)CC1
IC50 (Hep 3B2): 313 nM
